Laboratory results taken from patent US6548544B1, “Method of treatment of priapism without raising systemic blood pressure” (The National University of Singapore, priority 1999, dated 2003).

How the values were obtained:
[1] = test system: cavernous nerve stimulation-induced intracavernous pressure increase; experiment: Intracavernous pressure (ICP) response to cavernous nerve stimulation, in vivo rat model; design: species or system Sprague Dawley rats; settings: for Cavernous pressure (mmHg) recording: nerve stimulation
Procedure: The cavernous nerve is a relatively well-defined nerve that exits from the major pelvic ganglion and carries a large component of the autonomic input to the penis. Through electrical stimulation of this nerve, the changes in the peripheral neural mechanisms controlling penile erection can be observed in the animal model. The responses are recorded as concomitant alterations in the ICP following stimulation of this nerve branch.

[2] = design: species or system baboon; settings: in vivo
Procedure: (§1) Six male baboons weighing between 8 kg and 12 kg were used for the experiment. The animals were sedated with ketamine and anaesthetised with intravenous pentobarbitone injected through an indwelling venous catheter. Drugs were injected into the right corpora cavornosa at the mid-third of the shaft using a 29G needle and 1 ml syringe. Blood pressure was monitored through a cannulated femoral artery connected to the transducer. A measuring tape was used to measure penile length visually from a marked point at the base of the penis to the tip of urethral orifice. Changes in penile length were recorded for a period of 100 min after injection.
(§2) In baboons, intracavernous injection of papaverine (40 mg) or phenoxybenzamine (3 mg) produced a 130% increase in penile length within […] after administration (Table 1). This increase in penile length lasted for more than 100 min. This was repeated one week later and when prostaglandin A2 was injected intracavernosally at the maximum rigidity 20 min after the drug administration, the latter produced a marked reduction in penile length and within 40 min of injection, the penile size reduced to the original state of rugosity (Table 1). The fall in systemic blood pressure produced by prostaglandin A2 ranged from 8 to 16 mmHg. Each value reported in Table 1 represents the mean of six experiments.

[3] = test system: human corpora cavernosa muscle; experiment: Contractile response of human corpus cavernosum smooth muscle in vitro; type: cell-based
Source text: FIG. 2 is a graphical representation showing contractile response of prostaglandin A2 on human corpus cavernosum smooth muscle.
Prostaglandin A2 is 8.2 times stronger than noradrenaline in contracting human corpora cavernosa muscle in vitro and 500, 2.5 and 50 times stronger than dopamine, adrenaline and aramine, respectively (FIG. 2).

[4] = rat, in vivo
Procedure: METHOD: Male Sprague Dawley rats (500-700 g) were anaesthetized with sodium pentobarbital (45 mg/kg, intraperitoneal) and the trachea intubated (14G jelco catheter) for respiration. The left external jugular vein and the right common carotid artery were cannulated (PE 50 tubing) for drug infusion and blood pressure monitoring respectively. Through a lower median abdominal incision, the lateral prostate was exposed and the fascia around the cavernous nerve separated through fine dissection. The exposed nerve was suspended on bipolar hook electrode for stimulation. Through transverse perineal incision, a 27G needle was inserted into the penile crus for pressure recording. Systemic and intracavernous pressures were measured by transducers (Ugo Basile) and recorded with MacLab analogue-digital converter (AD instruments). To initiate the experiment, the cavernous nerve was stimulated with square wave pulses of 1 millisecond duration at 20 Hertz and 2 volts with the resting ICP recording.

[5] = test system: Pharmacologically Induced Prolonged Erection (Pipe); experiment: Effect on papaverine- and phenoxybenzamine-induced prolonged erection (PIPE), penile length, baboons; type: in vivo, baboon
Procedure: as §1
Intracavernous injection of papaverine (40 mg) or phenoxybenzamine (3 mg) which produced maximal penile length within 20 and 40 min were repeated one week later and prostaglandin A2 was given at the peak time of the turgidity.
as §2

[6] = test system: prolonged erection induced by 60 mg of papaverine; experiment: Effect on papaverine-induced prolonged erection in human patients and volunteers; type: in vivo; settings: for Mean Decrease in Length of Turgid Penis %: erection induced by 60 mg papaverine
Procedure: In human patients and human volunteers, intracavernous injection of prostaglandin A2 (150 μg) was tested on prolonged erection (lasting more than 4 hours) induced by 60 mg of papaverine.
This was corrected by an additional injection of prostaglandin A2 (100 μg). The fall in mean systemic blood pressure ranged from 7 to 10 mmHg (Table 2).

For `CCCCC[C@H](O)/C=C/[C@H]1C=CC(=O)[C@@H]1C/C=C\CCCC(=O)O` [AS-8, prostaglandin A2], which “prevention of intracavernous pressure increase to cavernous nerve stimulation” value [1] is on record?
Its value is “prevents, in a dose-dependent manner”.

And the “cavernous pressure elevations to subsequent nerve stimulations” value ([1]; intracavernous AS-8, all the doses tested, Analysis of Variance)?
Its value is “significantly suppressed”.

And the “Cavernous pressure (mmHg) recording” value ([1]; AS-8 1 μg intracavernous, 2 Min after, Control before 45.76 ± 1.46)?
Its value is 26.48 ± 4.62 mmHg.

What about the “Cavernous pressure (mmHg) recording” value ([1]; AS-8 1 μg intracavernous, 5 Min after, Control before 45.76 ± 1.46) of the same compound?
Its value is 22.48 ± 3.21 mmHg.

What about the “Cavernous pressure (mmHg) recording” value ([1]; AS-8 1 μg intracavernous, 10 Min after, Control before 45.76 ± 1.46) of the same compound?
The value was 26.94 ± 4.77 mmHg.

And the “Cavernous pressure (mmHg) recording” value ([1]; AS-8 1 μg intracavernous, 20 Min after, Control before 45.76 ± 1.46)?
Its value is 24.42 ± 6.87 mmHg.

And the “Cavernous pressure (mmHg) recording” value ([1]; AS-8 1 μg intracavernous, 30 Min after, Control before 45.76 ± 1.46)?
Its value is 22.40 ± 5.34 mmHg.

What about the “Cavernous pressure (mmHg) recording” value ([1]; AS-8 1 μg intracavernous, 30 Sec after, Control before 45.76 ± 1.46) of the same compound?
Its value is 33.83 ± 3.09 mmHg.

And the “Cavernous pressure (mmHg) recording” value ([1]; AS-8 2 μg intracavernous, 2 Min after, Control before 40.60 ± 2.58)?
The value was 22.29 ± 9.96 mmHg.

And the “Cavernous pressure (mmHg) recording” value ([1]; AS-8 2 μg intracavernous, 5 Min after, Control before 40.60 ± 2.58)?
Its value is 26.42 ± 4.42 mmHg.

What about the “Cavernous pressure (mmHg) recording” value ([1]; AS-8 2 μg intracavernous, 10 Min after, Control before 40.60 ± 2.58) of the same compound?
Its value is 24.49 ± 7.39 mmHg.

What about the “Cavernous pressure (mmHg) recording” value ([1]; AS-8 2 μg intracavernous, 20 Min after, Control before 40.60 ± 2.58) of the same compound?
The value was 31.84 ± 5.54 mmHg.

And the “Cavernous pressure (mmHg) recording” value ([1]; AS-8 2 μg intracavernous, 30 Min after, Control before 40.60 ± 2.58)?
The value was 29.62 ± 4.62 mmHg.

What about the “Cavernous pressure (mmHg) recording” value ([1]; AS-8 2 μg intracavernous, 30 Sec after, Control before 40.60 ± 2.58) of the same compound?
The value was 35.29 ± 3.29 mmHg.

What about the “Cavernous pressure (mmHg) recording” value ([1]; AS-8 4 μg intracavernous, 2 Min after, Control before 46.40 ± 1.59) of the same compound?
The value was 16.07 ± 1.00 mmHg.

And the “Cavernous pressure (mmHg) recording” value ([1]; AS-8 4 μg intracavernous, 5 Min after, Control before 46.40 ± 1.59)?
Its value is 14.90 ± 1.71 mmHg.

And the “Cavernous pressure (mmHg) recording” value ([1]; AS-8 4 μg intracavernous, 10 Min after, Control before 46.40 ± 1.59)?
The value was 15.00 ± 6.71 mmHg.

What about the “Cavernous pressure (mmHg) recording” value ([1]; AS-8 4 μg intracavernous, 20 Min after, Control before 46.40 ± 1.59) of the same compound?
Its value is 18.30 ± 6.40 mmHg.

And the “Cavernous pressure (mmHg) recording” value ([1]; AS-8 4 μg intracavernous, 30 Min after, Control before 46.40 ± 1.59)?
The value was 17.05 ± 5.86 mmHg.

And the “Cavernous pressure (mmHg) recording” value ([1]; AS-8 4 μg intracavernous, 30 Sec after, Control before 46.40 ± 1.59)?
The value was 25.91 ± 5.57 mmHg.

And the “fall in systemic blood pressure” value [2]?
Its value is 8-16 mmHg.

What about the “times stronger than adrenaline in contracting human corpora cavernosa muscle” value ([3]; versus adrenaline) of the same compound?
The value was 2.5 times.

What about the “times stronger than aramine in contracting human corpora cavernosa muscle” value ([3]; versus aramine) of the same compound?
Its value is 50 times.

And the “times stronger than dopamine in contracting human corpora cavernosa muscle” value ([3]; versus dopamine)?
The value was 500 times.

What about the “times stronger than noradrenaline in contracting human corpora cavernosa muscle” value ([3]; versus noradrenaline) of the same compound?
Its value is 8.2 times.

What about the “mean systemic blood pressure change” value [4] of the same compound?
Its value is “concurrent reduction in mean systemic blood pressure”.

And the “Mean Change in Penile Length (% of Control)” value (“Mean Change … (% of Control)” for short) ([5]; papaverine 40 mg followed by AS-8 100 μg 20 min later, 1 min after injection)?
The value was 32%.

What about the “Mean Change … (% of Control)” value ([5]; papaverine 40 mg followed by AS-8 100 μg 20 min later, 2 min after injection) of the same compound?
The value was 38%.

And the “Mean Change … (% of Control)” value ([5]; papaverine 40 mg followed by AS-8 100 μg 20 min later, 5 min after injection)?
Its value is 65%.

What about the “Mean Change … (% of Control)” value ([5]; papaverine 40 mg followed by AS-8 100 μg 20 min later, 10 min after injection) of the same compound?
The value was 130%.

What about the “Mean Change … (% of Control)” value ([5]; papaverine 40 mg followed by AS-8 100 μg 20 min later, 20 min after injection) of the same compound?
The value was 142%.

What about the “Mean Change … (% of Control)” value ([5]; papaverine 40 mg followed by AS-8 100 μg 20 min later, 40 min after injection) of the same compound?
Its value is 15%.

What about the “Mean Change … (% of Control)” value ([5]; papaverine 40 mg followed by AS-8 100 μg 20 min later, 60 min after injection) of the same compound?
The value was 0%.

What about the “Mean Change … (% of Control)” value ([5]; papaverine 40 mg followed by AS-8 100 μg 20 min later, 80 min after injection) of the same compound?
The value was 0%.

And the “Mean Change … (% of Control)” value ([5]; papaverine 40 mg followed by AS-8 100 μg 20 min later, 100 min after injection)?
The value was 0%.

And the “Mean Change … (% of Control)” value ([5]; phenoxybenzamine 3 mg followed by AS-8 100 μg 20 min later, 1 min after injection)?
Its value is 7%.

What about the “Mean Change … (% of Control)” value ([5]; phenoxybenzamine 3 mg followed by AS-8 100 μg 20 min later, 2 min after injection) of the same compound?
The value was 15%.

And the “Mean Change … (% of Control)” value ([5]; phenoxybenzamine 3 mg followed by AS-8 100 μg 20 min later, 5 min after injection)?
The value was 20%.

And the “Mean Change … (% of Control)” value ([5]; phenoxybenzamine 3 mg followed by AS-8 100 μg 20 min later, 10 min after injection)?
Its value is 38%.

What about the “Mean Change … (% of Control)” value ([5]; phenoxybenzamine 3 mg followed by AS-8 100 μg 20 min later, 20 min after injection) of the same compound?
Its value is 85%.

And the “Mean Change … (% of Control)” value ([5]; phenoxybenzamine 3 mg followed by AS-8 100 μg 20 min later, 40 min after injection)?
The value was 10%.

And the “Mean Change … (% of Control)” value ([5]; phenoxybenzamine 3 mg followed by AS-8 100 μg 20 min later, 60 min after injection)?
The value was 0%.

And the “Mean Change … (% of Control)” value ([5]; phenoxybenzamine 3 mg followed by AS-8 100 μg 20 min later, 80 min after injection)?
Its value is 0%.

What about the “Mean Change … (% of Control)” value ([5]; phenoxybenzamine 3 mg followed by AS-8 100 μg 20 min later, 100 min after injection) of the same compound?
Its value is 0%.

And the “time until penile size reduced to the original state of rugosity” value ([5]; prostaglandin A2 intracavernosally at maximum rigidity 20 min after papaverine or phenoxybenzamine)?
Its value is no more than 40 min.

And the “Mean Decrease in Length of Turgid Penis %” value ([6]; Patients (2), 150 μg intracavernous, 1 min after AS-8 injection)?
The value was 10%.

What about the “Mean Decrease in Length of Turgid Penis %” value ([6]; Patients (2), 150 μg intracavernous, 5 min after AS-8 injection) of the same compound?
Its value is 50%.

And the “Mean Decrease in Length of Turgid Penis %” value ([6]; Patients (2), 150 μg intracavernous, 10 min after AS-8 injection)?
Its value is 80%.

What about the “Mean Decrease in Length of Turgid Penis %” value ([6]; Patients (2), 150 μg intracavernous, 20 min after AS-8 injection) of the same compound?
The value was 90%.

And the “Mean Decrease in Length of Turgid Penis %” value ([6]; Patients (2), 150 μg intracavernous, 30 min after AS-8 injection)?
The value was 100%.

What about the “Mean Decrease in Length of Turgid Penis %” value ([6]; Volunteers (3), 150 μg intracavernous, 1 min after AS-8 injection) of the same compound?
The value was 10%.

And the “Mean Decrease in Length of Turgid Penis %” value ([6]; Volunteers (3), 150 μg intracavernous, 5 min after AS-8 injection)?
The value was 30%.

And the “Mean Decrease in Length of Turgid Penis %” value ([6]; Volunteers (3), 150 μg intracavernous, 10 min after AS-8 injection)?
The value was 75%.

And the “Mean Decrease in Length of Turgid Penis %” value ([6]; Volunteers (3), 150 μg intracavernous, 20 min after AS-8 injection)?
The value was 80%.

And the “Mean Decrease in Length of Turgid Penis %” value ([6]; Volunteers (3), 150 μg intracavernous, 30 min after AS-8 injection)?
Its value is 95%.

What about the “subjects with maximal reduction in rigidity and penile length to the rugose state within 30 min after injection” value ([6]; patients and volunteers, erection induced by 60 mg papaverine for 4 hours or more, 150 μg intracavernous) of the same compound?
The value was “four out of five subjects”.

And the “relapse of tumescence after first injection” value ([6]; volunteers, first injection 150 μg, corrected by additional injection of 100 μg)?
The value was “In one volunteer, there was a relapse of tumescence within 60 min”.
